# Patent US11752099B2, “Injectable and biodegradable polymer formulations for controlled release of bioactive agents” (W. L. Gore & Associates, Inc., priority 2017, dated 2023)
# System: eyes of an animal subject
# Conditions: in vivo
# Procedure: The copolymer PLA:GA Resomer® RG 756 S, Poly(D,L-lactide-co-glycolide) purchased from Evonik Industries, Germany, was dissolved in 11 g of triacetin (Sigma-Aldrich, St. Louis) in 25 ml glass vials to obtain approximately a 6% solution by maintaining the mixture on a stir plate with a magnetic stir bar. The molecular weight was 76,000 for the PLGA polymer. The solution was processed aseptically through a 0.2 μm sterile filter into 1 ml syringes. Each syringe contained approximately 200 μl of formulation.
# The polymer formulations were delivered into the eyes of an animal subject and each eye only received a single injection. […] The in-life period of the polymer formulation injections was approximately 90 days. Approximately every week the intraocular pressure (IOP) was measured.
# At retrieval, the eyes were examined and inter ocular pressure (IOP) was obtained. The eyes were gently removed, examined, and fixed in Davidson's Solution for a minimum of 24 hours. Post fixation, the eyes were processed for histological analyses.
# The tissue samples were processed to yield histological slides and were examined under microscope for inflammation. […]
Substance,IOP immediately post-op,"average normalized IOP values, relative to baseline before implantation (FIG. 10)",inflammation on histological slides,time for immediate rise in IOP to return to normal values,visual examination of the eyes at retrieval,visual inspection with an ophthalmoscope (redness of the retina)
D/L-PLA:TMC:PGA [Example 17],much higher than the baseline,≤ 100%,no inflammation was noted,≤ 30 min,no abnormalities observed,no redness of the retina
"Poly(D,L-lactide-co-glycolide) [Resomer® RG 756 S, reference compound]",much higher than the baseline,above 100%,revealed inflammation,≤ 30 min,–,"redness of the retina, a sign of inflammation, in one observation"
